From patent US20090258947A1 (priority 2006, published 2009)
Read-outs that look alike come from different tables or passages of the source. Marks after values point to notes of the source that are not given here.

Key:
[1] = tested on: carrageenan induced paw edema in Wistar rats; conditions: for Change in volume (ml) at hour (h): mean ± S.E.M., n = 6
Protocol: Male Wistar rats (180-250 g) were selected for the study comprising 6 animals in each group for the duration of study of 1 day. The vehicle used was (0.5% CMC in 0.1% Tween®80) and the route of administration was peroral (p.o.). […] One hour later 0.1 ml of 1% carrageenan was administered s.c. to the right hind paw of the rat. The degree of inflammation was measured by using digital plethosmometer (Cat. No. 7140, Ugo Basile, Italy) at 0 (initial), 0.5, 1, 2, 3 and 5 hours (h) post carrageenan injection and the values were recorded. For each hour, at least 2-3 values of the dipped paw were obtained and later averaged. The increase in the paw volume (ml) was calculated by subtracting the values obtained at the n^th from the 0 hour and percentage of activity was also calculated. The changes in paw edema (ml) values were expressed as mean±S.E.M. The treatment values were compared with the control values for a particular hour using One-Way Analysis of Variance followed by Dunnett's multiple comparison test. Values of p<0.05 were considered as statistically significant.

[2] = tested on: 1% acetic acid induced writhing in mice; conditions: for No. of writhes: 20-minute session, mean ± S.E.M., N = 6
Protocol: (§1) Male Swiss mice (18-22 g) were selected for the study comprising 6 animals in each group. The dose volume was 0.1 ml/10 g body weight of mice and the route of administration was per oral (p.o.). Two tests were performed for the purpose. […] One hour later, a 1% acetic acid solution (10 ml/kg, i.p.) was used to produce writhing in mice. The numbers of writhes {constriction of abdomen, turning of trunk (twist), and extension of hind limbs} due to acetic acid were expressed as painful response. The numbers of writhes per animal were counted during a 20-minute session, beginning 3 minutes after the acetic acid injection. In second test i.e. Tail flick test, the mouse tail was placed on the radiant heat produced by the tail flick apparatus and the individual animal tail flick response was noted (a trail of three was carried out). Animals having a latency to tail withdrawal from the radiant heat source (3-5 s) were selected for the study. […] 1, 2, 4, 5 hours later, the tail flick latency were noted and the change in latency and % maximum protective effect (% MPE) was calculated. A cut off time of 10 seconds was used to prevent any injury to the tail. The changes in tail flick latency and the number of writhes are expressed as mean±S.E.M. The treatment values were compared with the control values for a particular hour using One-Way Analysis of Variance followed by Dunnett's or Bonferroni's multiple comparison test. Values of p<0.05 were considered as statistically significant.

[3] = tested on: tail flick latency to radiant heat in mice; conditions: for % MPE at hour (h) / Tail flick latency(s) at hour (h): mean ± S.E.M., N = 6
Protocol: as §1

[4] = cited from earlier work

CS(=O)(=O)Nc1ccc([N+](=O)[O-])cc1Oc1ccccc1 [Nimesulide, 4-nitro-2-phenoxymethane-sulfonanilide]
Percentage of anti-inflammatory activity at hour (h) ([1]; 1 mg/kg p.o., 0.5 h): 16%
Change in volume (ml) at hour (h) ([1]; 1 mg/kg p.o., 0.5 h post carrageenan): 0.148 ± 0.033 mL
Percentage of anti-inflammatory activity at hour (h) ([1]; 1 mg/kg p.o., 1 h): −8%
Change in volume (ml) at hour (h) ([1]; 1 mg/kg p.o., 1 h post carrageenan): 0.186 ± 0.042 mL
Percentage of anti-inflammatory activity at hour (h) ([1]; 1 mg/kg p.o., 2 h): −7%
Change in volume (ml) at hour (h) ([1]; 1 mg/kg p.o., 2 h post carrageenan): 0.312 ± 0.081 mL
Percentage of anti-inflammatory activity at hour (h) ([1]; 1 mg/kg p.o., 3 h): 20%
Change in volume (ml) at hour (h) ([1]; 1 mg/kg p.o., 3 h post carrageenan): 0.398 ± 0.092 mL
Percentage of anti-inflammatory activity at hour (h) ([1]; 1 mg/kg p.o., 5 h): 14%
Change in volume (ml) at hour (h) ([1]; 1 mg/kg p.o., 5 h post carrageenan): 0.549 ± 0.114 mL
Percentage of anti-inflammatory activity at hour (h) ([1]; 3 mg/kg p.o., 0.5 h): 22%
Change in volume (ml) at hour (h) ([1]; 3 mg/kg p.o., 0.5 h post carrageenan): 0.137 ± 0.038 mL
Percentage of anti-inflammatory activity at hour (h) ([1]; 3 mg/kg p.o., 1 h): 27%
Change in volume (ml) at hour (h) ([1]; 3 mg/kg p.o., 1 h post carrageenan): 0.126 ± 0.028 mL
Percentage of anti-inflammatory activity at hour (h) ([1]; 3 mg/kg p.o., 2 h): 33%
Change in volume (ml) at hour (h) ([1]; 3 mg/kg p.o., 2 h post carrageenan): 0.196 ± 0.056 mL
Percentage of anti-inflammatory activity at hour (h) ([1]; 3 mg/kg p.o., 3 h): 66* %
Change in volume (ml) at hour (h) ([1]; 3 mg/kg p.o., 3 h post carrageenan): 0.168 ± 0.11 mL
Percentage of anti-inflammatory activity at hour (h) ([1]; 3 mg/kg p.o., 5 h): 44%
Change in volume (ml) at hour (h) ([1]; 3 mg/kg p.o., 5 h post carrageenan): 0.354 ± 0.104 mL
Percentage of anti-inflammatory activity at hour (h) ([1]; 10 mg/kg p.o., 0.5 h): 33%
Change in volume (ml) at hour (h) ([1]; 10 mg/kg p.o., 0.5 h post carrageenan): 0.118 ± 0.027 mL
Percentage of anti-inflammatory activity at hour (h) ([1]; 10 mg/kg p.o., 1 h): 17%
Change in volume (ml) at hour (h) ([1]; 10 mg/kg p.o., 1 h post carrageenan): 0.143 ± 0.016 mL
Percentage of anti-inflammatory activity at hour (h) ([1]; 10 mg/kg p.o., 2 h): 62%
Change in volume (ml) at hour (h) ([1]; 10 mg/kg p.o., 2 h post carrageenan): 0.110 ± 0.018 mL
Percentage of anti-inflammatory activity at hour (h) ([1]; 10 mg/kg p.o., 3 h): 59* %
Change in volume (ml) at hour (h) ([1]; 10 mg/kg p.o., 3 h post carrageenan): 0.203 ± 0.032 mL
Percentage of anti-inflammatory activity at hour (h) ([1]; 10 mg/kg p.o., 5 h): 58** %
Change in volume (ml) at hour (h) ([1]; 10 mg/kg p.o., 5 h post carrageenan): 0.264 ± 0.035 mL
anti-inflammatory activity over time ([1]; 10 mg/kg, all time intervals): almost consistent anti-inflammatory activity at all time intervals
Percentage of anti-inflammatory activity at hour (h) ([1]; 30 mg/kg p.o., 0.5 h): 28%
Change in volume (ml) at hour (h) ([1]; 30 mg/kg p.o., 0.5 h post carrageenan): 0.126 ± 0.027 mL
Percentage of anti-inflammatory activity at hour (h) ([1]; 30 mg/kg p.o., 1 h): −12%
Change in volume (ml) at hour (h) ([1]; 30 mg/kg p.o., 1 h post carrageenan): 0.193 ± 0.024 mL
Percentage of anti-inflammatory activity at hour (h) ([1]; 30 mg/kg p.o., 2 h): 27%
Change in volume (ml) at hour (h) ([1]; 30 mg/kg p.o., 2 h post carrageenan): 0.214 ± 0.028 mL
Percentage of anti-inflammatory activity at hour (h) ([1]; 30 mg/kg p.o., 3 h): 38%
Change in volume (ml) at hour (h) ([1]; 30 mg/kg p.o., 3 h post carrageenan): 0.307 ± 0.020 mL
Percentage of anti-inflammatory activity at hour (h) ([1]; 30 mg/kg p.o., 5 h): 30%
Change in volume (ml) at hour (h) ([1]; 30 mg/kg p.o., 5 h post carrageenan): 0.443 ± 0.035 mL
degree of anti-inflammatory activity ([1]; 30 mg/kg p.o., from 2-5 hour): around 30%
reduction in paw volume (dose dependence) ([1]; 1, 3 and 10 mg/kg, p.o., from 2 to 5 hour): dose dependant reduction in paw volume
reduction in paw volume compared to control (significance) ([1]; 3 and 10 mg/kg at 3 hours and 10 mg/kg at 5 hours, p<0.05): statistically significant reduction in paw volume
% protection ([2]; 0.03 mg/kg p.o.): 28%
No. of writhes ([2]; 0.03 mg/kg p.o.): 23.17 ± 3.38
% protection ([2]; 0.1 mg/kg p.o.): 39%
No. of writhes ([2]; 0.1 mg/kg p.o.): 19.67 ± 2.73
No. of writhes ([2]; 0.3 mg/kg p.o.): 15.50 ± 1.88
% protection ([2]; 1.0 mg/kg p.o.): 75%
No. of writhes ([2]; 1.0 mg/kg p.o.): 8.00 ± 1.15
reduction in number of writhes (dose dependence) ([2]; doses 0.03, 0.1, 0.3 and 1 ml/kg, 1% acetic acid): dose dependant reduction in number of writhes
reduction in number of writhing (significance) ([2]; doses 0.1, 0.3 and 1 mg/kg): statistically significant reduction in number of writhing
% MPE at hour (h) ([3]; 0.1 mg/kg p.o., 1 h): 137.0 ± 37.1 %
Tail flick latency(s) at hour (h) ([3]; 0.1 mg/kg p.o., 1 h): 3.00 ± 0.58 s
% MPE at hour (h) ([3]; 0.1 mg/kg p.o., 2 h): 251.0 ± 59.9 %
Tail flick latency(s) at hour (h) ([3]; 0.1 mg/kg p.o., 2 h): 5.50 ± 0.18 s
% MPE at hour (h) ([3]; 0.1 mg/kg p.o., 3 h): 279.0 ± 49.4 %
Tail flick latency(s) at hour (h) ([3]; 0.1 mg/kg p.o., 3 h): 6.17 ± 0.33 s
% MPE at hour (h) ([3]; 0.1 mg/kg p.o., 5 h): 28.0 ± 6.1 %
Tail flick latency(s) at hour (h) ([3]; 0.1 mg/kg p.o., 5 h): 1.42 ± 0.35 s
% MPE at hour (h) ([3]; 0.3 mg/kg p.o., 1 h): 114.0 ± 16.8 %
Tail flick latency(s) at hour (h) ([3]; 0.3 mg/kg p.o., 1 h): 3.17 ± 0.51 s
% MPE at hour (h) ([3]; 0.3 mg/kg p.o., 2 h): 193.0 ± 9.5 %
Tail flick latency(s) at hour (h) ([3]; 0.3 mg/kg p.o., 2 h): 5.33 ± 0.38 s
% MPE at hour (h) ([3]; 0.3 mg/kg p.o., 3 h): 209.0 ± 4.3 %
Tail flick latency(s) at hour (h) ([3]; 0.3 mg/kg p.o., 3 h): 5.75 ± 0.21 s
% MPE at hour (h) ([3]; 0.3 mg/kg p.o., 5 h): 54.0 ± 6.6 %
Tail flick latency(s) at hour (h) ([3]; 0.3 mg/kg p.o., 5 h): 3.08 ± 0.27 s
% MPE at hour (h) ([3]; 1.0 mg/kg p.o., 1 h): 112.0 ± 22.5 %
Tail flick latency(s) at hour (h) ([3]; 1.0 mg/kg p.o., 1 h): 3.17 ± 0.67 s
% MPE at hour (h) ([3]; 1.0 mg/kg p.o., 2 h): 187.0 ± 11.9 %
Tail flick latency(s) at hour (h) ([3]; 1.0 mg/kg p.o., 2 h): 5.25 ± 0.25 s
% MPE at hour (h) ([3]; 1.0 mg/kg p.o., 3 h): 187.0 ± 12.0 %
Tail flick latency(s) at hour (h) ([3]; 1.0 mg/kg p.o., 3 h): 5.25 ± 0.28 s
% MPE at hour (h) ([3]; 1.0 mg/kg p.o., 5 h): 38.0 ± 6.1 %
Tail flick latency(s) at hour (h) ([3]; 1.0 mg/kg p.o., 5 h): 2.17 ± 0.28 s
% MPE at hour (h) ([3]; 3.0 mg/kg p.o., 1 h): 205.0 ± 32.9 %
Tail flick latency(s) at hour (h) ([3]; 3.0 mg/kg p.o., 1 h): 5.17 ± 0.73 s
% MPE at hour (h) ([3]; 3.0 mg/kg p.o., 2 h): 250.0 ± 21.9 %
Tail flick latency(s) at hour (h) ([3]; 3.0 mg/kg p.o., 2 h): 6.33 ± 0.33 s
% MPE at hour (h) ([3]; 3.0 mg/kg p.o., 3 h): 248.0 ± 20.4 %
Tail flick latency(s) at hour (h) ([3]; 3.0 mg/kg p.o., 3 h): 6.25 ± 0.21 s
% MPE at hour (h) ([3]; 3.0 mg/kg p.o., 5 h): 70.0 ± 9.5 %
Tail flick latency(s) at hour (h) ([3]; 3.0 mg/kg p.o., 5 h): 5.33 ± 0.85 s
tail flick latency to radiant heat (dose dependence) ([3]; 0.1, 0.3, 1 and 3 mg/kg, 1, 2, 3 and 5 hours): non dose dependant reduction in tail flick latency
percentage of maximum protection (significance) ([3]; all time intervals and all dose levels): statistically significant at all time intervals and at all dose levels
Time to reach peak concentration (tmax), mean ([4]; after 100 mg): 2.50 h
Time to reach peak concentration (tmax), mean ([4]; after 200 mg dose): 3.17 h
